Laboratory results published in paper PMC10392058 (FEBS Open Bio, 2023).

What was measured:
[1] = MDCKII bidirectional permeability, mock transfected cells; assay type: in vitro ADME; conditions: dog, MDCK
[2] = molecular target: T1, BCRP (Homo sapiens, UniProt Q9UNQ0); experiment: MDCKII bidirectional permeability, BCRP expressing cells; conditions: dog
T1 sequence (Q9UNQ0 1-655): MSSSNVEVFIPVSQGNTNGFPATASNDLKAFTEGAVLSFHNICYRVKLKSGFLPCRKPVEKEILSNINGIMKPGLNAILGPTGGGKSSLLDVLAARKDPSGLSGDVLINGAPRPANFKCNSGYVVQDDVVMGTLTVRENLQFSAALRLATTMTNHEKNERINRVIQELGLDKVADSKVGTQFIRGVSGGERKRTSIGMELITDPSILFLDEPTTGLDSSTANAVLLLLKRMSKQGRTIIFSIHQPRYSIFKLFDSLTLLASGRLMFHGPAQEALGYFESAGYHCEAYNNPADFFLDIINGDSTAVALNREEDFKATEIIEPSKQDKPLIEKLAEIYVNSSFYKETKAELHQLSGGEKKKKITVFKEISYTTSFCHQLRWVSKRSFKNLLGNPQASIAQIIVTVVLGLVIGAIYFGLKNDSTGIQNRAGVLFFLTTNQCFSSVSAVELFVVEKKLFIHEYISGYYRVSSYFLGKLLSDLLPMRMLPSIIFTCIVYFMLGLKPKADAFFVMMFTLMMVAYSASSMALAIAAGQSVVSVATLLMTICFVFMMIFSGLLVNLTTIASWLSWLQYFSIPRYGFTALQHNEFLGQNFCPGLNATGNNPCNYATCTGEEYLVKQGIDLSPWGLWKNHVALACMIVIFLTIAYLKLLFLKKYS

[3] = test system: HXA3 release; parameters: method as in PMID 19017997; conditions: 100 μM; cited from earlier work
[4] = test system: HXA3/MRP2‐driven neutrophil epithelial transmigration; experiment: HXA3/MRP2‐driven neutrophil transmigration assay (S. typhimurium‐stimulated T84 monolayer, MPO readout); assay type: cell-based, human; conditions: 100 μM probenecid (positive control); P = 0.0008
Experimental: As described under Materials and Methods, in the neutrophil transmigration assay, a polarized human intestinal cell line monolayer was grown on a transwell insert to mimic the intestinal epithelial barrier. The cells were then apically stimulated by the addition of pathogenic Salmonella typhimurium, eliciting HXA3 efflux via MRP2 into the apical side of the chamber. Fresh, unstimulated human neutrophils were added to the basolateral side of the monolayer, where they detected the HXA3 gradient and migrated through the epithelial monolayer to the apical side. They were then quantified by assay of myeloperoxidase (MPO), a neutrophil biomarker.
Following stimulation via pathogenic S. typhimurium to elicit HXA3 efflux, migration of fresh human neutrophils from the basolateral side of the polarized monolayer (in response to the HXA3 gradient) to the apical side was quantified by MPO activity assay. […]
In the neutrophil transmigration assay (a modified Boyden chamber assay), a polarized T84 human intestinal cell line monolayer was grown on a Transwell insert to mimic the intestinal epithelial barrier. […] Fresh human neutrophils, added to the basolateral side of the monolayer, detected the HXA3 gradient and migrated through the epithelial monolayer to the apical side, where they were quantified by assay of MPO activity, a neutrophil biomarker [47].

[5] = test system: MDCKII‐mock‐LV cells; experiment: MDCKII bidirectional permeability, mock transfected cells; assay type: in vitro ADME
[6] = molecular target: T2, MDCKII‐BCRP‐LV cells (Homo sapiens, UniProt Q9UNQ0); experiment: MDCKII bidirectional permeability, BCRP expressing cells
T2 sequence (Q9UNQ0 1-655): T1 sequence (Q9UNQ0 1-655)

## COc1cc2nc(N3CCN(C(=O)c4ccco4)CC3)nc(N)c2cc1OC [Prazosin]
[1]
  Papp A→B at 1 μM: 14.7 ± 13.3 ×10⁻⁶ cm/s
[2]
  Papp A→B at 1 μM: 3.02 ± 0.84 ×10⁻⁶ cm/s
  Papp B→A at 1 μM: 53.1 ± 8.15 ×10⁻⁶ cm/s

## CCCN(CCC)S(=O)(=O)c1ccc(C(=O)O)cc1 [probenecid]
[3]
  inhibition of HXA3 release: effectively inhibits HXA3 release
[4]
  neutrophil migration inhibition: extremely significant

## Lucifer yellow [LY]
[5]; LY 40 μg·mL^−1
  Papp A‐B: 0.20 ± 0.03 × 10^−6 cm·s^−1
[5]; LY 40 μg·mL^−1 + ADS051 14 mg·mL^−1 (TA applied apically)
  Papp A‐B: 0.32 ± 0.09 × 10^−6 cm·s^−1
[5]; LY 40 μg·mL^−1 + ADS051 14 mg·mL^−1 (TA applied basolaterally)
  Papp A‐B: 0.46 ± 0.09 × 10^−6 cm·s^−1
[6]; LY 40 μg mL^−1
  Papp A‐B: 0.06 ± 0.01 × 10^−6 cm·s^−1
[6]; LY 40 μg mL^−1 + ADS051 14 mg mL^−1 (TA applied apically)
  Papp A‐B: 0.21 ± 0.02 × 10^−6 cm·s^−1
[6]; LY 40 μg mL^−1 + ADS051 14 mg mL^−1 (TA applied basolaterally)
  Papp A‐B: 0.19 ± 0.01 × 10^−6 cm·s^−1
